Measured values reported in paper PMC11640973, “The Detection of Toxic Amyloid-β Fibril Fragments Through a Surface Plasmon Resonance Immunoassay” (International Journal of Molecular Sciences, 2024).
Values belong to the compound of their own block, whether it stands above or below them.

Tests used:
[1] = SPR-based approach; ref [21]; cited from earlier work
Source text: In order to reliably detect transient oligomeric species in a mixture of aggregated species without sample manipulation, an immunoassay based on surface plasmon resonance (SPR) has been proposed. This method exploits the properties of an anti-Aβ antibody (4G8) for a direct and simultaneous determination of monomers and biologically relevant (i.e., toxic) transient oligomeric species, also distinguishing the latter from large fibrils. SPR is a highly quantitative technique for measuring binding kinetics and determining monomer concentrations. However, in the context of aggregation assays ...

[2] = stock solution in 50 mM NaOH (1 mg/mL), −80 °C; ref [38]; cited from earlier work
Experimental: To further validate our results, we used native forms of Aβ42. Lyophilized recombinant Aβ42 (rPepride) and the synthetic Aβ42 (Bachem) were suspended in a 50 mM NaOH solution (1 mg/mL) following the protocol of Taylor et al., which provides a simple and reliable method for the high-yield preparation of seedless Aβ monomers. […] This validated approach reduces handling variability and ensures reproducibility in experiments.

anti-Aβ antibody 4G8 = experiment: SPR immunoassay of Aβ42 binding to immobilized anti-Aβ antibody 4G8
Source text: This binding profile resembles closely that described previously for a solution containing monomers only. […]
For the present work, we used both the ProteOn™ XPR36 Protein Interaction Array system (Bio-Rad Laboratories, Hercules, CA, USA) and the Sierra SPR®-32 Pro (Bruker, Billerica, MA, USA). The ProteOn™ XPR36 allows for the preparation of six parallel lanes, each representing a different surface on a single chip, with, for instance, five lanes used for ligand (target) immobilization and one designated as a reference. By rotating the chip, each ligand surface can interact with up to six analytes, enabling the simultaneous analysis of up to 36 unique interactions in a single run. The Sierra SPR®-32 Pro is configured with 8 separate channels, each containing four detection spots, one of which serves as a reference spot, enabling analysis with up to 8 samples per run.
The anti-Aβ antibody 4G8 (Signet Laboratories, Emeryville, CA, USA) was immobilized on a CMD50L sensor chip (XanTec bioanalytics, Düsseldorf, Germany) using standard amine coupling chemistry, following standard protocols. A solution of 30 µg/mL 4G8 antibody in 20 mM acetate buffer pH 5.0 was injected for immobilization.
To monitor the aggregation of Aβ42 over time, we followed the general protocol described above. Briefly, Aβ42 was prepared at a final concentration of 50 µM in PBS and incubated at 37 °C. Samples were collected at various time points (0, 6, and 120 h) to capture distinct aggregated forms corresponding to monomers, oligomers/small fibrils, and fibrils. […] The signal from the 4G8-immobilized surface was corrected by subtracting the nonspecific response observed on the empty parallel reference surface.

[3] = Aβ42 compared to Aβ40; ref [35]; cited from earlier work
Experimental: The lyophilized powder obtained from the synthesis and purification was suspended in 0.02% Trifluoracetic acid (TFA). The final pH of the solution was 2.8, ensuring the stability of the depsi bond and preventing premature conversion to the native peptide. The concentration was measured using UV ...

SHSY-5Y cells = experiment: MTT toxicity assay on SHSY-5Y cells; assay type: cell-based; details: 24 h; for toxic effect (cell viability): Bachem Aβ42, 10 to 100 nM; for cell viability (of control): 10 nM, 95%CI fibrils 67.3–76.0%, fragmented 39.6–48.0%; for cell viability (of control) / cell viability (of controls): Bachem Aβ42, fibrils from 48 h at 37 °C, three sessions each in triplicate; for cell viability (of controls): 30 nM, 95%CI fibrils 52.1–57.3, fragmented 39.7–45.71%; for cell viability versus vehicle control cells: 10 to 100 nM, fibrils ± sonication, p < 0.01, one-way ANOVA
Experimental: SHSY-5Y cell survival was assessed using the MTT colorimetric assay after exposure to Aβ species—including monomers (t = 0), fibrils, and sonicated fibrils (48 h)—prepared and incubated at a concentration of 100 µM for aggregation. As described in the sample preparation chapter, cells were exposed to these Aβ species at final concentrations of 10, 30, and 100 nM for 24 h. Following exposure, cells were incubated with a culture medium (100 µL/well) containing a 1:10 dilution of Thiazolyl blue tetrazolium bromide (MTT; 4 mg dissolved in 1 mL DPBS). The plates were then placed in the incubator for 3 h. At the end of the incubation, the medium containing MTT was replaced with HCl-Isopropanol (1N HCl diluted 1:25 in 100% isopropanol). The absorbance of the colored solution was measured at 540 nm using a microplate spectrophotometer (F500 Infinity, Tecan, Männedorf, Switzerland).
Statistical calculations were performed using GraphPad Prism (version 9.4; GraphPad Software, Bethesda, MD, USA). Paired t-tests were used to analyze differences between experimental conditions (e.g., Figure 3), while one-way ANOVA followed by Tukey’s post hoc test was applied for multiple group comparisons (e.g., Figure 4). The data are presented as mean ± standard deviation (SD). The statistical significance was defined as p < 0.05.

[4] = incubated 5 days, then one freeze–thaw cycle
[5] = freshly prepared Aβ42 (t = 0), 5 µM
[6] = freshly prepared Aβ42 (t = 0), 5 µM in PBST (0.005% Tween), flowed over immobilized 4G8

Compound: O=C(O[C@@H]1Cc2c(O)cc(O)cc2O[C@@H]1c1cc(O)c(O)c(O)c1)c1cc(O)c(O)c(O)c1 [epigallocatechin gallate]
- effect on formation of Aβ42 oligomers [1]: inhibited

- dissociation of most of the binding signal (anti-Aβ antibody 4G8; 50 µM in PBS incubated 6 h at 37 °C, diluted to 5 µM, 15 min dissociation phase): very slow dissociation
- decrease in the monomer signal (anti-Aβ antibody 4G8; 6 h of aggregation, 50 µM in PBS, 37 °C): 56%
- time to complete dissociation of signal (anti-Aβ antibody 4G8; incubated 5 days at 37 °C (residual monomers)): ≤ 15 min
- SPR signals (anti-Aβ antibody 4G8; [4]): marked increase in the SPR signals
- absolute amount of monomers (anti-Aβ antibody 4G8; [4]): decreased
Compound: Amyloid-β1–42 [Aβ42]
- stability of monomeric state [2]: at least 40 days
- SPR binding signal on immobilized 4G8 (anti-Aβ antibody 4G8; 50 µM in PBS incubated 6 h at 37 °C, diluted to 5 µM, versus t = 0): marked increase in the SPR binding signal
- oligomer-dependent SPR signal (slow dissociation) (anti-Aβ antibody 4G8; fragmentation by freeze–thaw or sonication, eight independent experiments, rPeptide, Bachem or depsi-peptide Aβ42, Proteon or Bruker, p = 0.0012 paired t-test): fragmentation-induced increase in SPR-detected Aβ42 oligomers
- SPR signal (anti-Aβ antibody 4G8; incubated 5 days at 37 °C, versus 6 h and freshly prepared): much lower SPR signal compared to the solution incubated for 6 h (Figure 2c), and even lower than that of the freshly prepared solution
- aggregation propensity [3]: higher aggregation propensity

Compound: Aβ40: Aβ1–40, fragment of Amyloid Precursor Protein [reference compound]
- aggregation propensity [3]: aggregates more slowly

- KD (calculated from the ratio koff/kon) (anti-Aβ antibody 4G8; Aβ42 monomer binding to immobilized 4G8, t = 0): about 140 nM
- time to complete dissociation (anti-Aβ antibody 4G8; [5]): ≤ 15 min
- time to saturation of SPR binding signal (anti-Aβ antibody 4G8; [5]): ≈ 1 min
- koff (anti-Aβ antibody 4G8; [6]): 0.0044 s⁻¹
- kon (anti-Aβ antibody 4G8; [6]): 31000 M⁻¹ s⁻¹
Compound: Aβ42 monomer: freshly prepared Aβ42 solution (t = 0), containing monomers only
- toxic effect (cell viability) (SHSY-5Y cells; MTT): rule out any toxic effect

- recognition of fibrillar macroaggregates by SPR (anti-Aβ antibody 4G8; incubated 5 days at 37 °C): not recognized by SPR
Compound: fibrillar macroaggregates: Aβ42 incubated 5 days, larger suprafibrillar macroaggregates

Compound: fibrils: Aβ42 purchased from Bachem, fibrils obtained after 48 h incubation at 37 °C
- cell viability (of control) (SHSY-5Y cells; MTT): 71.6%
- cell viability (of controls) (SHSY-5Y cells; MTT): 54.73%
- cell viability versus vehicle control cells (SHSY-5Y cells): significantly different from the viability of control cells
- toxic effect (cell viability) (SHSY-5Y cells; MTT): concentration-dependent toxicity

Compound: sonicated fibrils: Aβ42 fibrils produced by tip sonication (1 min 10% power 30% cycles)
- cell viability (of control) (SHSY-5Y cells; MTT): 43.8%
- cell viability (of controls) (SHSY-5Y cells; MTT): 42.7%
- cell viability versus vehicle control cells (SHSY-5Y cells): significantly different from the viability of control cells
- fibril toxicity, change by fragmentation (SHSY-5Y cells; sonicated versus unfragmented fibrils, 10 and 30 nM, MTT): significantly increased by fragmentation
